# Entries after “also recorded” stand apart in the source; their conditions may differ.
# What was measured:
# [1] = system: baboon vascular grafts (graft intimal hyperplasia); assay: Inhibition of graft intimal hyperplasia by polyamine infusion, baboon aortoiliac bypass graft model; type: in vivo; set-up: thickness of grafts, Left Proximal Ave. / thickness of grafts, Left Distal Ave. (Treated site): unit not given here; conditions: for thickness of grafts, Left Distal Ave. (Treated site): left distal anastomosis infused with polyamine; for thickness of grafts, Left Distal Ave. (Treated site) / thickness of grafts, Left Proximal Ave.: pump 2.5 ul/hr for 28 days, one animal per line; for thickness of grafts, Left Proximal Ave.: polyamine-infused left graft, proximal anastomosis upstream of polyamine administration
# Protocol: The procedure of Chen et al., Journal of Vascular Surgery 31(2):354 (2000) was used to prepare the animals. Briefly, baboons underwent bilateral aortoiliac bypass grafting with expanded polytetrafluoroethylene grafts. The distal anastomosis of one graft (the left graft) was infused with polyamine; the distal anastomosis of the contralateral graft (right graft) was infused with placebo (saline). The drugs were infused with the Alzet 2ML4 pump at a flow rate of 2.5 ul/hr for 28 days. For administration of CGC-11093, the pump contained 4.4 mg/ml (10 mM) drug and delivered 266 ug/day (7.5 mg in 28 days). For administration of CGC-11159, drug concentration was also at 10 mM; the pump delivered 646.2 ug/day (18.1 mg in 28 days). After 28 days the grafted vessels were harvested and analyzed. All anastomosis/graft samples were harvested by in vivo pressure-perfusion fixation with 10% Neutral Buffered Formalin (NBF) and fixed further overnight in 10% NBF. Samples were cut into several sections (noting proximal and distal) and marked with green dye for standard overnight processing. Processed samples were embedded in paraffin sectioned at […] intervals and stained with conventional hematoxylin and eosin (H&E). For morphometric measurements and analysis, H&E sections were imaged with a Nikon EFD-3 microscope with darkfield and polarized light epiluminescence and an RT Slider Diagnostic Camera. Graft and vessel sections were analyzed with respect to total neointimal area and maximal thickness. Morphometric analysis was performed using Image-Pro Plus 4.5 (Media Cybernetics) software. All images were digitized and archived.
# [2] = system: pig femoral AV grafts (graft vein anastomosis/proximal vein, venous neointimal hyperplasia); assay: Histopathology of PTA-injured porcine arteriovenous (AV) grafts with perivascular drug infusion; type: in vivo; conditions: for decrease in luminal stenosis versus placebo: perivascular injections, summary of results, dose not given
# Protocol: This example was performed to determine the effect of injections of CGC-11093 and CGC-11159 on the vasculature of pigs following arteriovenous grafting. The histopathology of reactive and inflammatory responses of pig femoral AV grafts 14 days after Mercator Microsyringe infusion with 1 mg CGC-11093 (6 sites), 10 mg CGC-11093 (2 sites), 10 mg CGC-11159 (8 sites), or placebo saline injection (8 sites) in conjunction with percutaneous transluminal angioplasty (PTA) of the graft vein anastomosis and the proximal vein was assessed.
# The methods used were as follows: all graft-vein anastomosis/proximal vein (GVA/PV) sites were subjected to angioplasty and perivascular injection via Mercator Microsyringe. Angioplasty was performed and drugs were infused 14 days after graft implant; animals were sacrificed 14 days later for histopathological examination. A total of 24 GVA/PV sites were evaluated. Six sites received 1 mg of CGC-11093; two sites received 10 mg CGC-11093, eight sites received 10 mg of CGC-11159, and eight sites received placebo injection with saline. All injections were performed in conjunction with percutaneous transluminal angioplasty (PTA) of the GVA and PV.
# After 14 days, the graft vein anastomosis sites (GVA/PV) were excised en bloc and perfused with formalin. Sectioning of the graft vein anastomosis was performed as follows: briefly, tissue sections were taken at approximately 5 mm intervals through the proximal vein (PV). Tissue sections were taken at approximately 3 mm intervals through the graft-vein anastomosis (GVA) site. Sections were taken at approximately […] intervals through the distal vein (DV). All tissues were routinely processed, embedded in paraffin, sectioned at 5 microns and stained with hematoxylin and eosin for histopathologic evaluation. Numerous histologic sections through each PV, DV and GVA were evaluated. Each section was labeled with the letter P, G, or D (P=proximal vein, G=graft vein anastomosis, and D=Distal vein) and with a corresponding number to indicate proximity to the graft vein anastomosis.
# The histopathologic evaluation included a general description of relevant features regardirig tissue reaction and inflammation around the graft vein anastomosis (GVA) and through the proximal femoral vein (PV). Histopathologic features including inflammation, fibrosis, angiogenesis and venous neointimal hyperplasia (VNH) within the GVA and PV were assessed. Attempts were made to differentiate between histopathologic changes attributed to the surgical procedure, secondary affects of GVA, angioplasty and perivascular injection of drug via Mercator Microsyringe.
# Initial histopathologic evaluation was performed on all tissues to define the common inflammatory and reactive changes in all specimens. An overall general description of changes in sections of PV and GVA was made. An estimate of the percent occlusion of the most severely affected segment in both the PV and GVA was made. Two precise, perpendicular cross sectional measurements of the lumen were made in the most severely affected section of the PV. In the GVA a single luminal diameter was measured in the most severely affected section. Next, a qualitative assessment of overall severity of VNH, as well as inflammation within the VNH and degree of angiogenesis within the VNH was made for both the PV and the GVA. Additionally, a general description of the overall perivascular tissue reaction around the PV and the GVA was recorded. Lastly, unique, and potentially significant, pathologic features were documented. Unique pathologic features generally included interpretation of the overall severity of the changes, presence or absence of an inflamed seroma, or presence of thrombosis or infection in the GVA or PV. When assessing the degree or severity of a certain histopathologic change (i.e. severity of VNH, etc) a qualitative scoring method was used. A score of 0=absent, 1=minimal, 2=mild, 3=moderate, 4=severe.
smiles,measurement,setting,value
"CCCCCNCCCCNCC1CC1CNCCCCNCC (racemic) [CGC-11302, N-{2-[(4-Ethylamino-butylamino)-methyl]-cyclopropylmethyl}-N′-pentyl-butane-1,4-diamine]","thickness of grafts, Left Distal Ave. (Treated site)",[1],0.822
same,"thickness of grafts, Left Proximal Ave.",[1],1.047
CCNCCCCNCC1CC1CNCCCCNCC (stereo not shown) [CGC-11093],"thickness of grafts, Left Distal Ave. (Treated site)",[1],1.072
same,"thickness of grafts, Left Proximal Ave.",[1],0.499
same,"degree of VNH angiogenesis, summary",[2]; 1 mg,minimal to absent VNH angiogenesis
same,"histopathologic features/changes, summary",[2]; 1 mg,fewer significant or potentially deleterious histopathologic features; also recorded: less severe histopathologic changes
same,"severity of VNH inflammation, summary",[2]; 1 mg,minimal VNH inflammation
same,"severity of overall VNH in PV and GVA, summary",[2]; 1 mg,minimal amount of VNH in both the PV and GVA
same,"vascular occlusion, summary","[2]; 1 mg, compared with other animals in the study",less severe vascular occlusion than other animals in the study
same,decrease in luminal stenosis versus placebo,[2],49.2%
CCNCCCCNCC1CC1CNCCCCNCC (stereo not shown) [CGC-11098],"thickness of grafts, Left Distal Ave. (Treated site)",[1],1.778
same,"thickness of grafts, Left Proximal Ave.",[1],0.938
"CCNCCCCNCCCCNCCCCNCCCCNCCCCNCCCCNCCCCNCCCCNCCCCNCC [CGC-11159, CH3CH2—NH—(CH2CH2CH2CH2—NH—)9—CH2CH3]",decrease in average maximal thickness of hyperplasia in the vascular graft,"[1]; left distal anastomosis compared with placebo-treated grafts (right proximal and distal anastomoses), 10 mM, 646.2 ug/day for 28 days",~50%
same,"thickness of grafts, Left Distal Ave. (Treated site)",[1],0.336
same,"thickness of grafts, Left Proximal Ave.",[1],0.695
same,"degree of VNH angiogenesis in PV and GVA, summary",[2]; 10 mg,greater degree of VNH angiogenesis in the PV and GVA
same,incidence of GVA/PV thrombosis,[2]; 10 mg,higher incidence of GVA/PV thrombosis
same,"luminal diameter of PV, summary",[2]; 10 mg,more likely to have a smaller luminal diameter
same,perivascular tissue reaction (inflammation around the graft),[2]; 10 mg,"prominent, nodular lymphofollicular inflammation forming a rim surrounding the outside surface of the graft; also recorded: prominent, nodular to coalescing lymphocytic inflammation around the implanted graft material; also recorded: more prominent abnormal perivascular tissue reactions"
same,"severity of overall VNH in PV and GVA, summary",[2]; 10 mg,more severe VNH in both the PV and GVA
same,"unique histopathologic features, summary",[2]; 10 mg,often developed luminal thrombosis of both the PV and GVA as well as prominent lymphofollicular inflammation surrounding the graft material
same,"sites that developed fibrin thrombosis within the graft, with some degree of vascular and/or graft occlusion","[2]; 10 mg, eight sites treated",five of eight
same,"luminal occlusion or stenosis of the PV and GVA, summary","[2]; 10 mg, most animals, generally associated with thrombosis of the graft",more severe luminal occlusion or stenosis of the PV and GVA
same,"severity of VNH inflammation, summary","[2]; 10 mg, probably associated with thrombus formation",greater severity of VNH inflammation
same,decrease in luminal stenosis versus placebo,[2],22.6%

# Source: patent US20070232677A1, “Treatment and prevention of vascular hyperplasia using polyamine and polyamine analog compounds” (priority 2006, published 2007)
